Legend:
THP-1 cells = assay: Cell growth inhibition assay (CellTiter-Glo), THP-1; conditions: for GI50: Homo sapiens, THP-1, read-out: THP-1 GI50; for THP-1 TGI: THP-1 cells, total growth inhibition, CellTiter-Glo;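 as to all read-outs here: viability read as cellular ATP luminescence after 4 days, 3-fold dilution series from 10 µM, DMSO vehicle-treated cells taken as 100%, cell-free medium wells as −100%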
K-562 cells = assay: Cell growth inhibition assay (CellTiter-Glo), K-562; conditions: for GI50: Homo sapiens, K562, read-out: K-562 GI50; for K-562 TGI: K-562 cells, total growth inhibition, CellTiter-Glo;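 as to all read-outs here: cellular ATP measured by luminescence after 4 days of exposure, 3-fold dilution series from 10 µM, DMSO vehicle-treated cells define 100%, cell-free medium wells −100%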
MV-4-11 cells = assay: Cell growth inhibition assay (CellTiter-Glo), MV-4-11; conditions: for GI50: Homo sapiens, MV4-11, read-out: MV-4-11 GI50; for MV-4-11 TGI: MV-4-11 cells, total growth inhibition, CellTiter-Glo;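 as to all read-outs here: cellular ATP luminescence after 4 days, 3-fold dilution series from 10 µM top dose, vehicle (0.1% DMSO) set to 100%, cell-free medium set to −100%, day 0 corrected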
BRD4 (His-Brd4(44-477)) = BRD4 (His-Brd4(44-477)) (Homo sapiens (Human), UniProt O60885); assay: TR-FRET in-vitro binding assay for BRD4; conditions: single determination or n ≧ 2 independent determinations, read-out: Biochemical IC50 BRD4
Procedure: (§1) TR-FRET In-Vitro Binding Assays for BRD2, BRD3, and BRD4:
(§2) All assays were performed in 384 well microtiter plates. Each assay plate contained 8-point serial dilutions for 40 test compounds, plus 16 high- and 16 low controls. Liquid handling and incubation steps were done on an Innovadyne Nanodrop Express equipped with a robotic arm (Thermo CatX, Perkin Elmer/Caliper Twister II) and an incubator (Liconic STX40, Thermo Cytomat 2C450). The assay plates were prepared by addition of 50 nl per well of compound solution in 90% DMSO HummingBird nanodispenser (Zinsser Analytic). […] Reactions were incubated at 30° C. for 35 minutes. […] After 35 minutes incubation at 30° C., plates were measured in a Perkin Elmer EnVision multilabel reader.
(§3) Preparation of Compound Dilutions
(§4) Test compounds were dissolved in DMSO (10 mM) and transferred into 1.4 mL flat bottom or V-shaped Matrix tubes carrying a unique 2D matrix. The stock solutions were stored at […] if not used immediately. For the test procedure the vials were defrosted and identified by a scanner whereby a working sheet was generated that guided the subsequent working steps.
(§5) Compound dilutions were made in 96 well plates. This format enabled the assay of maximally 40 individual test compounds at 8 concentrations (single points) including 4 reference compounds, if desired (known BET inhibitors from the prior art, for this and other assays of the type disclosed herein). The dilution protocol included the production of “pre-dilution plates”, “master plates” and “assay plates”.
(§6) Pre-Dilution Plates: 96 polypropylene well plates were used as pre-dilution plates. A total of 4 pre-dilution plates were prepared including 10 test compounds each on the plate positions A1-A10, one standard compound at A11 and one DMSO control at A12. All dilution steps were done on a HamiltonSTAR robot.
(§7) These plates were used directly for the assay which was performed in a total volume of 13.55 μL.

BRD3 (His-Brd3(20-477)) = BRD3 (His-Brd3(20-477)) (Homo sapiens (Human), UniProt Q15059); assay: TR-FRET in-vitro binding assay for BRD3; conditions: single determination or n ≧ 2 independent determinations, read-out: Biochemical IC50 BRD3
Procedure: as §1, §2, §3, §4, §5, §6, §7

[1] = biological target: CREBBP bromodomain (His-CREBBP(1081-1197)) (Homo sapiens (Human), UniProt Q92793); assay: AlphaScreen in-vitro binding assay for CREBBP; conditions: single determination or n ≧ 2 independent determinations, read-out: Biochemical IC50 CREBBP
Procedure: AlphaScreen In-Vitro Binding Assay for CREBBP
In order to assess bromodomain selectivity, we set up a binding assay using the bromodomain encoded by the CREBBP gene. […] Reactions were incubated at 30° C. for 35 minutes. Subsequently 4.5 μl per well detection mix (50 mM HEPES, pH 7.5, 0.005% Tween20, 0.02% BSA, 150 mM NaCl, 45 μg/ml Ni-chelate acceptor beads, 45 μg/mIstreptavidin-donor beads) (Perkin Elmer)) were added. After 60 minutes incubation at room temperature, plates were measured in a Perkin Elmer EnVision multilabel reader. IC50 values were determined from percent inhibition values at different compound concentrations by non-linear regression analysis.
as §3, §4, §5, §6, §7

CREBBP bromodomain (His-CREBBP(1081-1197)), sequence (Q92793 1081-1197): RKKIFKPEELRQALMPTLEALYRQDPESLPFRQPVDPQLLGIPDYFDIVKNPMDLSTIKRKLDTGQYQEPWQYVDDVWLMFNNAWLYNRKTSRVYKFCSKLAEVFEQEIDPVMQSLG
BRD3 (His-Brd3(20-477)), sequence (Q15059 20-477): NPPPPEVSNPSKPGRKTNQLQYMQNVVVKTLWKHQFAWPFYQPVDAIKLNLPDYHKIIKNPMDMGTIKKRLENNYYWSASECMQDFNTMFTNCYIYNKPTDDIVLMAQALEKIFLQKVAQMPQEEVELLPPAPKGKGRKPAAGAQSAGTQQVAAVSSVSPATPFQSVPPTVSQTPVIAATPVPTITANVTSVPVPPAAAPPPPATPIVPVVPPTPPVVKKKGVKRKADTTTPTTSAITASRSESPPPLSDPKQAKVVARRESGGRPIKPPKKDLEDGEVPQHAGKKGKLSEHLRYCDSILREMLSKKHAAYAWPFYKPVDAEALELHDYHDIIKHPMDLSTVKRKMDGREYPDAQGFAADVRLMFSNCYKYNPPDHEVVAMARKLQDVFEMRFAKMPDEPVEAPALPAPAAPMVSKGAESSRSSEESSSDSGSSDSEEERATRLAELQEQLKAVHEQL

| GI50 (THP-1 cells) | GI50 (K-562 cells) | GI50 (MV-4-11 cells) | IC50 (BRD4 (His-Brd4(44-477))) | IC50 (BRD3 (His-Brd3(20-477))) | IC50 [1] | Compound | THP-1 TGI (THP-1 cells) | K-562 TGI (K-562 cells) | MV-4-11 TGI (MV-4-11 cells) |
| --- | --- | --- | --- | --- | --- | --- | --- | --- | --- |
| 21.2 nM | 104 nM | 15.9 nM | 21.5 nM | 34 nM | 2700 nM | Cc1cc(N2C(=O)c3nc(C4=CCOCC4)n(C4COC4)c3C2c2ccc(Cl)cc2)cc2c1nnn2C (centres unmarked) [Example 93, 6-(4-chlorophenyl)-2-(3,6-dihydro-2H-pyran-4-yl)-5-(1,4-dimethyl-1H-benzo[d][1,2,3]triazol-6-yl)-1-(oxetan-3-yl)-5,6-dihydropyrrolo[3,4-d]imidazol-4(1H)-one] | 0.06935 µM | >10 µM | 0.032 µM |
| 47.4 nM | 270 nM | 40.6 nM | 71.5 nM | 46 nM | 8050 nM | Cc1cc(N2C(=O)c3nc(C)n(C4COC4)c3C2c2ccc(Cl)cc2)cc2c1nnn2C (centres unmarked) [Example 94, 6-(4-chlorophenyl)-5-(1,4-dimethyl-1H-benzo[d][1,2,3]triazol-6-yl)-2-methyl-1-(oxetan-3-yl)-5,6-dihydropyrrolo[3,4-d]imidazol-4(1H)-one] | 0.09435 µM | >10 µM | 0.0687 µM |
| 17 nM | 85.7 nM | 28 nM | 26.5 nM | 29 nM | 1950 nM | Cc1cc(N2C(=O)c3nc(C4CC4)n(C4COC4)c3C2c2ccc(Cl)cc2)cc2c1nnn2C (centres unmarked) [Example 95, 6(4-chlorophenyl)-2-cyclopropyl-5-(1,4-dimethyl-1H-benzo[d][1,2,3]triazol-6-yl)-1-(oxetan-3-yl)-5,6-dihydropyrrolo[3,4-d]imidazol-4(1H)-one] | 0.0524 µM | >10 µM | 0.042 µM |
| 202 nM | 351 nM | 79.3 nM | 39 nM | 33.5 nM | 3950 nM | Cc1cc(N2C(=O)c3nc(C4=CCN(C)CC4)n(C4COC4)c3C2c2ccc(Cl)cc2)cc2c1nnn2C (centres unmarked) [Example 96, 6-(4-chlorophenyl)-5-(1,4-dimethyl-1H-benzo[d][1,2,3]triazol-6-yl)-2-(1-methyl-1,2,3,6-tetrahydropyridin-4-yl)-1-(oxetan-3-yl)-5,6-dihydropyrrolo[3,4-d]imidazol-4(1H)-one] | 0.2736 µM | >10 µM | 0.1206 µM |
| – | – | – | 16 nM | 18 nM | 960 nM | Cc1cc(N2C(=O)c3nc(C4CCOC4)n(C(C)C)c3C2c2ccc(Cl)cc2)cc2c1nnn2C (centres unmarked) [Example 99, 6-(4-chlorophenyl)-5-(1,4-dimethyl-1H-benzo[d][1,2,3]triazol-6-yl)-1-isopropyl-2-(tetrahydrofuran-3-yl)-5,6-dihydropyrrolo[3,4-d]imidazol-4(1H)-one] | – | – | – |
| 12.3 nM | 90.2 nM | 10.8 nM | 13 nM | 17 nM | 2000 nM | Cc1cc(N2C(=O)c3nc(C4CCOCC4)n(C4COC4)c3C2c2ccc(Cl)cc2)cc2c1nnn2C (centres unmarked) [Example 105, 6-(4-chlorophenyl)-5-(1,4-dimethyl-1H-benzo[d][1,2,3]triazol-6-yl)-1-(oxetan-3-yl)-2-(tetrahydro-2H-pyran-4-yl)-5,6-dihydropyrrolo[3,4-d]imidazol-4(1H)-one] | 0.02785 µM | >10 µM | 0.02195 µM |
| 91.1 nM | 330 nM | 71.5 nM | 41 nM | 58 nM | 2250 nM | Cc1cc(N2C(=O)c3nc(C4=CCOCC4)[nH]c3C2c2ccc(Cl)cc2)cn2c(C)nnc12 (centres unmarked) [Example 116, 6-(4-chlorophenyl)-2-(3,6-dihydro-2H-pyran-4-yl)-5-(3,8-dimethyl-[1,2,4]triazolo[4,3-a]pyridin-6-yl)-5,6-dihydropyrrolo[3,4-d]imidazol-4(1H)-one] | 0.166 µM | >10 µM | 0.1175 µM |
| 81 nM | 207 nM | 69.5 nM | – | – | – | COc1ccc(-c2nc3c([nH]2)C(c2ccc(Cl)cc2)N(c2cc(C)c4nnc(C)n4c2)C3=O)cn1 (centres unmarked) [Example 117, 6-(4-chlorophenyl)-5-(3,8-dimethyl-[1,2,4]triazolo[4,3-a]pyridin-6-yl)-2-(6-methoxypyridin-3-yl)-5,6-dihydropyrrolo[3,4-d]imidazol-4(1H)-one] | 0.129 µM | >10 µM | 0.112 µM |
| 79.4 nM | 227 nM | 76.6 nM | 30 nM | 32 nM | 2600 nM | COc1cc(C(F)(F)F)ccc1-c1nc2c([nH]1)C(c1ccc(Cl)cc1)N(c1cc(C)c3nnc(C)n3c1)C2=O (centres unmarked) [Example 136, 6-(4-chlorophenyl)-5-(3,8-dimethyl-[1,2,4]triazolo[4,3-a]pyridin-6-yl)-2-(2-methoxy-4-(trifluoromethyl)phenyl)-5,6-dihydropyrrolo[3,4-d]imidazol-4(1H)-one] | 0.1795 µM | >10 µM | 0.114 µM |
| 101 nM | 254 nM | 90.2 nM | 84.5 nM | 89 nM | – | COc1cc(F)ccc1-c1nc2c([nH]1)C(c1ccc(Cl)cc1)N(c1cc(C)c3nnc(C)n3c1)C2=O (centres unmarked) [Example 137] | 0.213 µM | >10 µM | 0.1245 µM |
| 8.82 nM | 56.8 nM | 10.6 nM | – | – | – | COc1ncccc1-c1nc2c(n1C(C)C)C(c1ccc(Cl)cc1)N(c1cc(C)c3nnn(C)c3n1)C2=O (centres unmarked) [Example 157, 6-(4-chlorophenyl)-5-(3,7-dimethyl-3H-[1,2,3]triazolo[4,5-b]pyridin-5-yl)-1-isopropyl-2-(2-methoxypyridin-3-yl)-5,6-dihydropyrrolo[3,4-d]imidazol-4(1H)-one] | 0.02475 µM | >10 µM | 0.01515 µM |
| – | – | – | 31 nM | 43 nM | > 37000 nM | Cc1cc(N2C(=O)c3nc(C4CCOC4)n(C(C)C)c3C2c2ccc(Cl)cc2)nn2c(C)nnc12 (centres unmarked) [Example 170, 6-(4-chlorophenyl)-5-(3,8-dimethyl-[1,2,4]triazolo[4,3-b]pyridazin-6-yl)-1-isopropyl-2-(tetrahydrofuran-3-yl)-5,6-dihydropyrrolo[3,4-d]imidazol-4(1H)-one] | – | – | – |
| – | – | – | 12 nM | < 11 nM | 17800 nM | Cc1cc(N2C(=O)c3nc(C4CCOC4)n(C(C)C)c3[C@H]2c2ccc(Cl)cc2)nn2c(C)nnc12 (stereo partly drawn) [Example 171, (6R)-6-(4-chlorophenyl)-5-(3,8-dimethyl-[1,2,4]triazolo[4,3-b]pyridazin-6-yl)-1-isopropyl-2-(tetrahydrofuran-3-yl)-5,6-dihydropyrrolo[3,4-d]imidazol-4(1H)-one] | – | – | – |

| Compound | GI50 (THP-1 cells) | GI50 (K-562 cells) | GI50 (MV-4-11 cells) | IC50 (BRD4 (His-Brd4(44-477))) | IC50 (BRD3 (His-Brd3(20-477))) | IC50 [1] | THP-1 TGI (THP-1 cells) | K-562 TGI (K-562 cells) | MV-4-11 TGI (MV-4-11 cells) |
| --- | --- | --- | --- | --- | --- | --- | --- | --- | --- |
| Cc1nc2c([nH]1)C(c1ccc(Cl)cc1)N(c1cc(C)c3nnn(C)c3c1)C2=O (centres unmarked) [Example 1, 6-(4-chlorophenyl)-5-(3,7-dimethyl-3H-benzo[d][1,2,3]triazol-5-yl)-2-methyl-5,6-dihydropyrrolo[3,4-d]imidazol-4(1H)-one] | 38.4 nM | 160 nM | 26.3 nM | – | – | – | 0.0799 µM | >10 µM | 0.05235 µM |
